Source: US20080200405A1, “Drug Resistance Reversal In Neoplastic Disease” (priority 2007, published 2008)

How the values were obtained:
Angiogenesis in CAM = assay: Neovascularization on the CAM (Inhibition of Angiogenesis in CAM); format: in vivo, chicken; conditions: 30 ug
Description: In vivo neovascularization was examined by the method previously described by Auerbach et al. (J. Dev. Biol. 41:391-394 (1974)). Ten-day old chicken embryos were purchased from Spafas, Inc. (Preston, Conn.) and were incubated at 37° C. with 55% relative humidity. In the dark, with the aid of a candling lamp, a small hole was punctured in the shell concealing the air sac with a hypodermic needle. A second hole was punctured in the shell on the broadside of the egg directly over an […] portion of the embryonic membrane, as observed during candling. An artificial air sac was created beneath the second hole by applying gentle vacuum to the first hole using a small rubber squeeze bulb. The vacuum caused the chorioallantoic membrane (CAM) to separate from the shell. A window, approximately 1.0 cm^2, was cut in the shell over the dropped CAM with the use of a small crafts grinding wheel (Dremel, Division of Emerson Electric Company Racine, Wis.). The window allowed direct access to the underlying CAM. A pro-angiogenic agent was added to induce new blood vessel branches on the CAM of 10-day old embryos. […] Louis, Mo.) in a solution (95% ethanol and water). The disks were subsequently air dried under sterile conditions. The disks were then suspended in PBS (Phosphate Buffered Saline) and placed on growing CAMs. […] For inducing angiogenesis, sterile filter disks were saturated with bFGF (1 μg/ml) (Life Technologies, Gaithersburg, Md.) or other pro-angiogenesis factors and control disks were saturated with PBS without Calcium and Magnesium. Control disks were saturated with PBS without Calcium and Magnesium. Using sterile forceps one filter/CAM was placed from the window. The window was sealed with Highland brand transparent tape. After 24-48 hr, 10-25 ul of test agent was injected intravenously or added topically into the CAM membrane. Eight-Ten eggs/treatment group were used. CAM tissue directly beneath filter disk was harvested from embryos treated 48 hours prior with compound or control. Tissues were washed three times with PBS. Sections were placed in a 35-mm petri dish (Nalge Nunc, Rochester, N.Y.) and examined under a SV6 stereomicroscope (Karl Zeiss, Thornwood, N.Y.) at 50× magnification. […] Digital images of CAM sections from Petri dish were collected using a 3-CCD color video camera system (Toshiba America, New York, N.Y.). These images were analyzed using Image-Pro Plus software (Media Cybernetics, Silver Spring, Md.). The number of branch points in blood vessels within the circular region superimposed to the area of a filter disk was counted for each section. […] Tissues were washed three times with PBS. Sections were placed in a 35-mm Petri dish (Nalge Nunc; Rochester, N.Y.) and were examined under a SV6 stereomicroscope (Karl Zeiss; Thornwood, N.Y.) at 50× magnification. Digital images of CAM sections adjacent to filters were collected using a 3-CCD color video camera system (Toshiba America; New York, N.Y.) and analyzed with the Image-Pro Plus software (Media Cybernetics; Silver Spring, Md.). The number of vessel branch points contained in a circular region equal to the area of a filter disk was counted for each section. Percent inhibition data are expressed as the quotient of the experimental value minus the negative control value divided by the difference between the positive control value and the negative control value. One image was counted in each CAM preparation, and findings from eight CAM preparations were analyzed for each treatment condition. In addition, each experiment was performed three times. The resulting angiogenesis index is the mean ±SEM (Standard Error of Measurement) of new branch points in each set of treatment. Statistical analysis of blood vessel branching patterns are performed by 1-way analysis of variance (ANOVA) comparing experimental with corresponding control groups.

[1] = In vitro stability of OT-551 in human plasma; format: in vitro ADME
Description: The active metabolite of OT-551 (Cyclopropanecarboxylic acid 1-hydroxy-2,2,6,6-tetramethyl-piperidin-4-yl ester) is TP-H. The objective of this analysis was to determine the in vitro half-life of OT-551 in rat, rabbit, dog, and human plasma under standardized incubation conditions.
OT-551 was incubated with pooled rat, rabbit, dog, and human plasma for various times under standardized incubation conditions. Pre-labeled tubes containing pooled plasma from rats, rabbits, dogs, and humans were pre-incubated in a shaking 37° C. water bath. A OT-551 solution was added to the tubes at a final concentration of 1000 ng/mL. Time zero samples (n=5) were immediately removed and transferred into tubes containing a stabilizer solution (DTPA, acetylcysteine and ascorbic acid), the LC/MS/MS assay internal standard and methanol. […] The tubes were vortexed, placed on ice, followed by centrifugation. One hundred-μL aliquots of the supernatant were transferred into HPLC sample vials. Additional tubes (n=5 at each time point) were incubated for 5, 10, 20, 30, 60, 120, and 240 minutes at 37° C. and thereafter processed. The amount of OT-551 and TP-H in each incubated sample was quantified using validated LC/MS/MS assays.

Compound | Inhibition of Angiogenesis in CAM, % Inhibition (Angiogenesis in CAM) | Concentrations (ng/mL) of TP-H in Human Plasma ([1]; OT-551 incubation time 0 min) | Concentrations (ng/mL) of TP-H in Human Plasma ([1]; OT-551 incubation time 5 min) | Concentrations (ng/mL) of TP-H in Human Plasma ([1]; OT-551 incubation time 10 min) | Concentrations (ng/mL) of TP-H in Human Plasma ([1]; OT-551 incubation time 20 min) | Concentrations (ng/mL) of TP-H in Human Plasma ([1]; OT-551 incubation time 30 min) | Concentrations (ng/mL) of TP-H in Human Plasma ([1]; OT-551 incubation time 60 min) | Concentrations (ng/mL) of TP-H in Human Plasma ([1]; OT-551 incubation time 120 min) | Concentrations (ng/mL) of TP-H in Human Plasma ([1]; OT-551 incubation time 240 min) | Inhibition of Angiogenesis in CAM, % Inhibition (Angiogenesis in CAM; listed as OT-551 HCl, hydrochloride) | inhibition in vivo at 0.03 mg (Angiogenesis in CAM; Gallus gallus) | Concentrations (ng/mL) of OT-551 in Human Plasma ([1]; incubation time 0 min) | Concentrations (ng/mL) of OT-551 in Human Plasma ([1]; incubation time 5 min) | Concentrations (ng/mL) of OT-551 in Human Plasma ([1]; incubation time 10 min) | Concentrations (ng/mL) of OT-551 in Human Plasma ([1]; incubation time 20 min) | Concentrations (ng/mL) of OT-551 in Human Plasma ([1]; incubation time 30 min) | Concentrations (ng/mL) of OT-551 in Human Plasma ([1]; incubation time 60 min) | Concentrations (ng/mL) of OT-551 in Human Plasma ([1]; incubation time 120 min) | Concentrations (ng/mL) of OT-551 in Human Plasma ([1]; incubation time 240 min)
CC1(C)CC(O)CC(C)(C)N1O [TEMPOL-H] | 43 ± 10% | 48.76 ± 2.84 ng/mL | 186.71 ± 4.58 ng/mL | 241.99 ± 8.05 ng/mL | 310.10 ± 8.54 ng/mL | 365.53 ± 14.44 ng/mL | 449.85 ± 9.73 ng/mL | 519.12 ± 19.52 ng/mL | 501.39 ± 11.33 ng/mL | – | – | – | – | – | – | – | – | – | –
CC1(C)CC(OC(=O)C2CC2)CC(C)(C)N1O.Cl [OT-551, 1-hydroxy-4-cyclopropanecarbonyloxy-2,2,6,6-tetramethylpiperidine hydrochloride] | – | – | – | – | – | – | – | – | – | 74 ± 4% | 75.2 ± 9.7% | 775.47 ± 22.50 ng/mL | 593.43 ± 7.55 ng/mL | 503.18 ± 20.90 ng/mL | 394.69 ± 6.72 ng/mL | 316.37 ± 7.67 ng/mL | 162.41 ± 9.77 ng/mL | 32.22 ± 2.63 ng/mL | 0.00 ± 0.00 ng/mL
